System: LPS-induced activation of coagulation, fibrinolysis and the vascular endothelium
Assay: LPS study: randomized, double-blind, placebo-controlled human endotoxemia experiment
Type: in vivo
[1] = healthy male volunteers, high dose (600 mg oral) 3 h before LPS 4 ng/kg i.v.

Cc1ccc(-n2nc(C(C)(C)C)cc2NC(=O)Nc2ccc(OCCN3CCOCC3)c3ccccc23)cc1 [formula (III), 1-[3-tert-butyl-1-p-tolyl-1H-pyrazol-5-yl]-3-[4-(2-morpholin-4-yl-ethoxy)naphthalen-1-yl]-urea]
LPS-elicited increase in plasma levels of sE-selectin (endothelial cell activation) [1]: attenuated
LPS-elicited increase in plasma levels of vWF (endothelial cell activation) [1]: attenuated
LPS-induced coagulation activation (increase in plasma prothrombin fragment F1+2 concentrations) (healthy male volunteers, high end dosing (600 mg oral) 3 h before LPS 4 ng/kg i.v., vs placebo): inhibited LPS-induced coagulation activation, both delaying and diminishing the increase in plasma F1+2 concentrations
activation of the fibrinolytic system (healthy male volunteers, oral dose 3 h before LPS 4 ng/kg i.v., tPA, PAI-1, PAPc assayed): even stronger inhibitory effect
IL-6 concentrations (subjects treated during low grade endotoxemia (LPS i.v.)): reduced IL-6 concentrations
